Source: the OligoGym collection
Values joined by “and” are separate entries in the source; they are usually repeats but may differ in a detail not shown here. Identical values can stand only once. After the bases stand the sugars from the 5' end (letter, count) and the backbone: PS all phosphorothioate, else s phosphorothioate and o phosphodiester by linkage. Methylation of C is not given here. e = 2'-O-(2-methoxyethyl) (MOE); k = constrained ethyl (cEt); d = 2'-deoxy (DNA)

Target: APOL1
Details: ASO

Sequence	target mRNA inhibition (A431, 2 µM) [%]	target mRNA inhibition (A431, 0.0156 µM) [%]	target mRNA inhibition (A431, 0.0625 µM)	target mRNA inhibition (A431, 0.25 µM)	target mRNA inhibition (A431, 1 µM)	target mRNA inhibition (A431, 0.04 µM)
GAAGCTTTAAACTCAG (sugars kkkddddkekekdddd, PS)	47	–	–	–	–	–
GAATTATGGAATTGCA (sugars k2 d4 e3 k2 d5, PS)	94	–	–	–	–	–
GAATTATGGAATTGCA (sugars kkdddddkekeddddd, PS)	92	17	38%	75%	86%	–
GACTTGTTTTATGGAG (sugars k4 d9 k3, PS)	–	–	75%	88%	92%	–
GAGTATTGTTTTTGTG (sugars k2 d4 e3 k2 d5, PS)	97	38	72%	91%	96%	–
GAGTATTGTTTTTGTG (sugars kdddddkekekddddd, PS)	90	–	–	–	–	–
GAGTATTGTTTTTGTG (sugars kddddkekekeddddd, PS)	94	–	–	–	–	–
GATGGGTACTTCTGTT (sugars k4 d9 k3, PS)	–	–	63%	82%	90%	–
GATTTTTCTTTGACCG (sugars k4 d9 k3, PS)	–	–	80% and 81%	95% and 94%	99% and 98%	–
GCATTCAGAATTTCCA (sugars k2 d4 e3 k2 d5, PS)	98	39	72%	91%	97%	–
GCGATTGTCTTGTTTT (sugars k4 d9 k3, PS)	–	–	64% and 78%	87% and 89%	93%	–
GCTAATTTTCTGACTG (sugars kddddkekekeddddd, PS)	88	–	–	–	–	–
GCTAATTTTCTGACTG (sugars kkkddddkekeddddd, PS)	93	10	42%	70%	87%	–
GCTTTAAACTCAGGTG (sugars kddddkekekeddddd, PS)	67	–	–	–	–	–
GCTTTAAACTCAGGTG (sugars kkddddkdkdkddddd, PS)	96	25	63%	83%	94%	–
GGAATTATGGAATTGC (sugars k2 d4 e3 k2 d5, PS)	99	8	38%	84%	96%	–
GGAATTATGGAATTGC (sugars kdddddkekekddddd, PS)	92	–	–	–	–	–
GGAATTATGGAATTGC (sugars kddddkekekeddddd, PS)	88	–	–	–	–	–
GGAATTATGGAATTGC (sugars kkdddddkekeddddd, PS)	40	–	–	–	–	–
GGAATTATGGAATTGC (sugars kkddddkekekkdddd, PS)	74	–	–	–	–	–
GGACATTGAACCTGGG (sugars k4 d9 k3, PS)	–	–	50%	78%	86%	–
GGCCGTGTCACCCTAA (sugars k4 d9 k3, PS)	–	–	51%	45%	52%	–
GGGAATTATGGAATTG (sugars kkkddddkekeddddd, PS)	63	–	–	–	–	–
GGGTCAAAAGCGATGG (sugars k4 d9 k3, PS)	–	–	50%	79%	88%	–
GGTTATGAAATTATTG (sugars k3 d4 k3 e1 d5, PS)	91	–	–	–	–	–

Sequence	target mRNA inhibition (A431, 2 µM) [%]	target mRNA inhibition (A431, 0.0156 µM) [%]	target mRNA inhibition (A431, 0.0625 µM)	target mRNA inhibition (A431, 0.25 µM)	target mRNA inhibition (A431, 1 µM)	target mRNA inhibition (A431, 0.04 µM)
GTAAGTATTGCCAGCT (sugars kkddddekekeddddd, PS)	69	–	–	–	–	–
GTAAGTATTGCCAGCT (sugars kkddddkekekddddd, PS)	53	–	–	–	–	–
GTAAGTGCTTTGATTC (sugars k4 d9 k3, PS)	–	–	64%	83%	92%	–
GTATTGCCAGCTAAGG (sugars k4 d9 k3, PS)	–	–	56%	85%	94%	–
GTATTGTTTTTGTGGG (sugars kdddddkekekddddd, PS)	77	–	–	–	–	–
GTATTTCTTGATGTGG (sugars kkddddekekeddddd, PS)	96	–	–	–	96%	58%
GTATTTCTTGATGTGG (sugars kkkddddkekekdddd, PS)	73	–	–	–	–	–
GTCCTTACTGCAGTTT (sugars k4 d9 k3, PS)	–	–	60%	83%	93%	–
GTGAGTATTGTTTTTG (sugars kkddddkekekddddd, PS)	88	–	–	–	–	–
GTTATATTTGATCCTC (sugars kekddddeekkddddd, PS)	99	37	71%	91%	98%	31%
GTTATATTTGATCCTC (sugars kkddddkdkdkddddd, PS)	93	9	38%	68%	89%	–
GTTATATTTGATCCTC (sugars kkkddddkekeddddd, PS)	98	32	65%	88%	96%	–
GTTATGAAATTATTGG (sugars k2 d4 e3 k2 d5, PS)	54	–	–	–	–	–
GTTATGAAATTATTGG (sugars k3 d4 k3 e1 d5, PS)	96	21	56%	85%	93%	–
GTTATGAAATTATTGG (sugars kkkddddkdkdkdddd, PS)	91	–	–	–	–	–
GTTATGAAATTATTGG (sugars kkkddddkekekdddd, PS)	79	–	–	–	–	–
GTTCAAAAGCAGCATT (sugars k3 d5 k3 d5, PS)	90	–	–	–	–	–
GTTCAAAAGCAGCATT (sugars k4 d9 k3, PS)	–	–	–	–	–	15% and 11%
GTTCAAAAGCAGCATT (sugars kekddddeekkddddd, PS)	89	–	–	–	–	–
GTTCAAAAGCAGCATT (sugars kkddddekekeddddd, PS)	82	–	–	–	–	–
GTTCAAAAGCAGCATT (sugars kkddddkekekddddd, PS)	60	–	–	–	–	–
GTTCAAAAGCAGCATT (sugars kkddddkekekkdddd, PS)	34	–	–	–	–	–
GTTCTAACTCTTGGGC (sugars kkddddkekekddddd, PS)	61	–	–	–	–	–
GTTCTAACTCTTGGGC (sugars kkkddddkekekdddd, PS)	37	–	–	–	–	–
GTTTTGTAAGTGCAAC (sugars kkddddkekekddddd, PS)	88	–	–	–	–	–

Sequence	target mRNA inhibition (A431, 2 µM) [%]	target mRNA inhibition (A431, 0.0156 µM) [%]	target mRNA inhibition (A431, 0.0625 µM)	target mRNA inhibition (A431, 0.25 µM)	target mRNA inhibition (A431, 1 µM)	target mRNA inhibition (A431, 0.04 µM)
GTTTTGTTGCACCCTC (sugars k4 d9 k3, PS)	–	–	65%	82%	95%	–
TATATTTGATCCTCAA (sugars kdddddkekekddddd, PS)	89	–	–	–	–	–
TATCAGATGGGTACTT (sugars k3 d4 k3 e1 d5, PS)	69	–	–	–	–	–
TATGGAATTGCAGATA (sugars k4 d9 k3, PS)	–	–	8%	46%	74%	–
TATTCTCATGGTACAG (sugars k2 d4 e3 k2 d5, PS)	71	–	–	–	–	–
TATTCTCATGGTACAG (sugars kkkddddkekeddddd, PS)	68	–	–	–	–	–
TCAGATGGGTACTTCT (sugars kkddddkekekddddd, PS)	82	–	–	–	–	–
TCCTTATGCTTACTCC (sugars k4 d9 k3, PS)	–	–	50%	80%	93%	–
TCTATTAGAGGGCTAG (sugars k2 d4 e3 k2 d5, PS)	67	–	–	–	–	–
TCTCATGGTACAGGAG (sugars kkddddkekekkdddd, PS)	26	–	–	–	–	–
TGAGTATTGTTTTTGT (sugars k3 d4 k3 e1 d5, PS)	95	43	69%	88%	94%	–
TGAGTATTGTTTTTGT (sugars kkkddddkekeddddd, PS)	92	16	47%	74%	90%	–
TGGAAATGCCAAAGTC (sugars k4 d9 k3, PS)	–	–	62%	88%	96%	–
TGGGAATTATGGAATT (sugars k2 d4 e3 k2 d5, PS)	63	–	–	–	–	–
TGGTTCAAAAGCAGCA (sugars k4 d9 k3, PS)	–	–	60%	84%	94%	–
TGTAAGTGCAACCAAT (sugars kddddkekekeddddd, PS)	67	–	–	–	–	–
TGTCTTGCAAGGTTGT (sugars k4 d9 k3, PS)	–	–	57%	73%	84%	–
TGTGTTTAGGCATTCA (sugars k4 d9 k3, PS)	–	–	–	61% and 86%	65% and 86%	–
TGTTATATTTGATCCT (sugars kkddddekekeddddd, PS)	94	17	41%	71%	85%	–
TGTTCTAACTCTTGGG (sugars k4 d9 k3, PS)	–	–	75%	88%	94%	–
TGTTTACTTACCGGGT (sugars k4 d9 k3, PS)	–	–	60% and 83%	86% and 91%	91% and 93%	–
TGTTTAGGCATTCAGA (sugars k4 d9 k3, PS)	–	–	59% and 37%	–	86% and 64%	–
TTATACCAGTGTCTTC (sugars kkddddkekekkdddd, PS)	68	–	–	–	–	–
TTATATTTGATCCTCA (sugars k3 d4 k3 e1 d5, PS)	96	–	–	–	–	–
